Target: T1, LXRβ (Homo sapiens, UniProt P55055)
T1 construct: Co-transfection expression plasmids, comprising full-length LXRα (pCMX-h LXRα[…] or LXRβ (pCMX-hLXRβ)); expressed in transfected cells; host or cells: CV-1 African Green Monkey Kidney Cells
T1 sequence (P55055 1-460): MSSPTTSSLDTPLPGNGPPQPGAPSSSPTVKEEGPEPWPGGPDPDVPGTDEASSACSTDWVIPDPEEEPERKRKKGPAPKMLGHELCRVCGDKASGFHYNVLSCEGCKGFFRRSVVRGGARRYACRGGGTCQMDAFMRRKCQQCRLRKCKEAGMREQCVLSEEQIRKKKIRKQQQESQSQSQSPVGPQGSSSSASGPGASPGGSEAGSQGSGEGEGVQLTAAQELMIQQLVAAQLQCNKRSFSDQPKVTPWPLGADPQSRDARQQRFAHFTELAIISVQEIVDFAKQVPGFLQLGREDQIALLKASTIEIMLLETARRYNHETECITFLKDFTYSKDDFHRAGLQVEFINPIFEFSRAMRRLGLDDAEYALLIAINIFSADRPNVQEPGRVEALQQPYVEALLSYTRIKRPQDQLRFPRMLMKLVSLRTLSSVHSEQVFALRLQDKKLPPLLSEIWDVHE
T1 sequence (P19793 1-462 partner): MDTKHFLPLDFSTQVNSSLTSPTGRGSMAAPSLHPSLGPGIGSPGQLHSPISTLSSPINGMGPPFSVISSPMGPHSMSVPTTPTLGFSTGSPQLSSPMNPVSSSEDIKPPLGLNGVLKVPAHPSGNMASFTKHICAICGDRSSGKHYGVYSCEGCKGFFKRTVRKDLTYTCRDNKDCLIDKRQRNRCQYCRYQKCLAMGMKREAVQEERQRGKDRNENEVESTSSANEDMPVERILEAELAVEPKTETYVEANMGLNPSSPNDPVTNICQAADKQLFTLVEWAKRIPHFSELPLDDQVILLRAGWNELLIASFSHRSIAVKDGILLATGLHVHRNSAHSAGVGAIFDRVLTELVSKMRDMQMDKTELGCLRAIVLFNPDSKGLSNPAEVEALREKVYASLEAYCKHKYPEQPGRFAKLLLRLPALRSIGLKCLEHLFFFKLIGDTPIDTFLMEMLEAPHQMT
Experiment: Co-transfection assay (LXRE luciferase reporter), LXRβ
Assay type: cell-based
Conditions: for EC50: CV-1 cells transfected with pCMX-hLXRβ and LXREx1-Tk-Luciferase, 20 hours incubation; for Emax: LXRβ co-transfection, relative to high control 1-(2,4-difluorobenzyl)-2-oxo-6-(4-phenoxyphenyl)-4-(trifluoromethyl)-1,2-dihydropyridine-3-carbonitrile, read-out: % Efficacy
Outline: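 Luciferase signal from an LXREx1-Tk reporter was measured after transfected CV-1 cells (full-length hLXRβ, endogenous RXR) were treated with compounds for 20 h at 37 °C, ≤0.5% DMSO. EC50 came from four-parameter fits of 11-point ½-log curves; % efficacy versus a reference agonist maximum.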

EC50 [nM] | Emax [%] | Compound
126 | 61 | Cc1cc(-c2oc(C)nc2-c2cc(-c3cccc(S(C)(=O)=O)c3)ccc2-n2cc(C(F)(F)F)nc2C)cc(Cl)n1 [Example 451, 5-(2-chloro-6-methylpyridin-4-yl)-2-methyl-4-(4-(2-methyl-4-(trifluoromethyl)-1H-imidazol-1-yl)-3′-(methylsulfonyl)biphenyl-3-yl)oxazole]
67 | 102 | Cc1nc(-c2cc(-c3ccc(CCO)c(S(C)(=O)=O)c3)ccc2-n2cc(C(F)(F)F)nc2C)c(-c2ccc(OC(F)(F)F)cc2)o1 [Example 523, 2-(4′-(2-methyl-4-(trifluoromethyl)-1H-imidazol-1-yl)-3′-(2-methyl-5-(4-(trifluoromethoxy)phenyl)oxazol-4-yl)-3-(methylsulfonyl)-[1,1′-biphenyl]-4-yl)ethanol]
109 | 89 | Cc1nc(-c2cc(-c3cccc(S(C)(=O)=O)c3)ccc2-n2cc(C(F)(F)F)nc2C)c(-c2ccc(Cl)cc2Cl)o1 [Example 486, 5-(2,4-dichlorophenyl)-2-methyl-4-(4-(2-methyl-4-(trifluoromethyl)-1H-imidazol-1-yl)-3′-(methylsulfonyl)biphenyl-3-yl)oxazole]
954 | 87 | Cc1nc(C(F)(F)F)cn1-c1ccc(-c2cccc(S(C)(=O)=O)c2)cc1-n1nncc1-c1ccc(F)cc1F [Example 40, 5-(2,4-difluorophenyl)-1-{3′-(methylsulfonyl)-4-[2-methyl-4-(trifluoromethyl)-1H-imidazol-1-yl]biphenyl-3-yl}-1H-1,2,3-triazole]
74 | 83 | Cc1nc(-c2cc(-c3cccc(S(=O)(=O)C4CC4)c3)ccc2-n2cc(C(F)(F)F)nc2C)c(-c2ccc(OC(F)F)c(F)c2)o1 [Example 429, 4-(3′-(cyclopropylsulfonyl)-4-(2-methyl-4-(trifluoromethyl)-1H-imidazol-1-yl)biphenyl-3-yl)-5-(4-(difluoromethoxy)-3-fluorophenyl)-2-methyloxazole]
57 | 62 | Cc1nc(-c2ccc(OC(F)(F)F)cc2O)c(-c2cc(-c3cccc(S(C)(=O)=O)c3)ccc2-n2cc(C(F)(F)F)nc2C)o1 [Example 626, 2-(2-methyl-5-(4-(2-methyl-4-(trifluoromethyl)-1H-imidazol-1-yl)-3′-(methylsulfonyl)-[1,1′-biphenyl]-3-yl)oxazol-4-yl)-5-(trifluoromethoxy)phenol]
18 | 81 | COc1cc(-c2oc(C)nc2-c2cc(-c3cc(F)c(CO)c(S(C)(=O)=O)c3)ccc2-n2cc(C(F)(F)F)nc2C)ccc1OC(F)F [Example 381, (3′-(5-(4-(difluoromethoxy)-3-methoxyphenyl)-2-methyloxazol-4-yl)-3-fluoro-4′-(2-methyl-4-(trifluoromethyl)-1H-imidazol-1-yl)-5-(methylsulfonyl)biphenyl-4-yl)methanol]
315 | 79 | CNS(=O)(=O)c1cccc(-c2ccc(-n3cc(C(C)(F)F)nc3C)c(-n3nncc3-c3ccc(OC(F)(F)F)cc3)c2)c1 [Example 175, 4′-[4-(1,1-difluoroethyl)-2-methyl-1H-imidazol-1-yl]-N-methyl-3′-(5-{4-[(trifluoromethyl)oxy]phenyl}-1H-1,2,3-triazol-1-yl)biphenyl-3-sulfonamide]
488 | 72 | COc1ccc(-c2cnnn2-c2cc(-c3cccc(S(C)(=O)=O)c3)ccc2-n2cc(C(F)(F)F)nc2C)cc1C(F)(F)F [Example 74, 5-[4-(methyloxy)-3-(trifluoromethyl)phenyl]-1-{3′-(methylsulfonyl)-4-[2-methyl-4-(trifluoromethyl)-1H-imidazol-1-yl]biphenyl-3-yl}-1H-1,2,3-triazole]
518 | 92 | CS(=O)(=O)c1cccc(-c2cc(F)c(-n3cnc(C(F)(F)F)c3)c(-n3nncc3-c3ccc(Cl)cc3)c2)c1 [Example 187, 5-(4-chlorophenyl)-1-{5-fluoro-3′-(methylsulfonyl)-4-[4-(trifluoromethyl)-1H-imidazol-1-yl]biphenyl-3-yl}-1H-1,2,3-triazole]
484 | 109 | Cc1nc(C(F)(F)F)cn1-c1ccc(-c2cc(F)cc(S(C)(=O)=O)c2)cc1-n1nncc1-c1ccc(OC(F)(F)F)cc1 [Example 91, 1-{3′-fluoro-5′-(methylsulfonyl)-4-[2-methyl-4-(trifluoromethyl)-1H-imidazol-1-yl]biphenyl-3-yl}-5-{4-[(trifluoromethyl)oxy]phenyl}-1H-1,2,3-triazole]
783 | 97 | Cc1nc(C(F)F)cn1-c1ccc(-c2ccc(CO)c(S(C)(=O)=O)c2)cc1-n1nncc1-c1ccc(OC(F)(F)F)cc1 [Example 159, {4′-[4-(difluoromethyl)-2-methyl-1H-imidazol-1-yl]-3-(methylsulfonyl)-3′-(5-{4-[(trifluoromethyl)oxy]phenyl}-1H-1,2,3-triazol-1-yl)biphenyl-4-yl}methanol]
136 | 71 | Cc1nc(-c2cc(-c3ccc(CO)c(S(C)(=O)=O)c3)ccc2-n2cc(C(F)(F)F)nc2C)c(-c2ccc(F)c(F)c2)o1 [Example 512, (3′-(5-(3,4-difluorophenyl)-2-methyloxazol-4-yl)-4′-(2-methyl-4-(trifluoromethyl)-1H-imidazol-1-yl)-3-(methylsulfonyl)biphenyl-4-yl)methanol]
896 | 68 | CNS(=O)(=O)c1cccc(-c2ccc(-n3cc(C(F)F)nc3C)c(-n3nncc3C(C)c3ccc(Cl)cc3)c2)c1 (stereo not drawn) [Example 130, 3′-{5-[1-(4-chlorophenyl)ethyl]-1H-1,2,3-triazol-1-yl}-4′-[4-(difluoromethyl)-2-methyl-1H-imidazol-1-yl]-N-methylbiphenyl-3-sulfonamide]
848 | 93 | Cc1nc(C(F)F)cn1-c1ccc(-c2cccc(S(C)(=O)=O)c2)cc1-n1nncc1-c1ccc(OC(F)(F)F)cc1 [Example 6]
133 | 62 | Cc1nc(C(F)(F)F)cn1-c1ccc(-c2cccc(S(C)(=O)=O)c2)cc1-n1nncc1C(F)(F)c1ccc(Cl)cc1 [Example 12, 5-[(4-chlorophenyl) (difluoro)methyl]-1-{3′-(methylsulfonyl)-4-[2-methyl-4-(trifluoromethyl)-1H-imidazol-1-yl]biphenyl-3-yl}-1H-1,2,3-triazole]
726 | 39 | Cc1nc(-c2cc(-c3ccc(C)c(S(C)(=O)=O)c3)ccc2-n2cc(C(F)(F)F)nc2C)c(-c2ccc(C(F)(F)F)nc2Cl)o1 [Example 476, 5-(2-chloro-6-(trifluoromethyl)pyridin-3-yl)-2-methyl-4-(4′-methyl-4-(2-methyl-4-(trifluoromethyl)-1H-imidazol-1-yl)-3′-(methylsulfonyl)biphenyl-3-yl)oxazole]
307 | 80 | Cc1nc(C(F)(F)F)cn1-c1ccc(-c2cccc(S(C)(=O)=O)c2)cc1-n1nncc1-c1ccc(OC(F)(F)F)cc1Cl [Example 68, 5-{2-chloro-4-[(trifluoromethyl)oxy]phenyl}-1-{3′-(methylsulfonyl)-4-[2-methyl-4-(trifluoromethyl)-1H-imidazol-1-yl]biphenyl-3-yl}-1H-1,2,3-triazole]
